The NIST ThermoML archive (doi:10.1016/j.fluid.2014.04.002)

Assay: xn = mol fraction of the nth substance listed
Settings: 101 kPa, Liquid; for viscosity: Concentric cylinders viscometry; for mass density: Vibrating tube method

CCOC(=O)C(C)O (stereo not drawn) [DL-ethyl lactate] + CC(O)CO
Settings | mass density [kg/m3] | viscosity [mPa·s]
288.15 K, x1 = 0.1 | 1039.89 | 49.88
288.15 K, x1 = 0.2 | 1039.87 | 30.87
288.15 K, x1 = 0.3 | 1039.88 | 21.2
288.15 K, x1 = 0.3999 | 1039.91 | 14.75
288.15 K, x1 = 0.4998 | 1039.94 | 10.62
288.15 K, x1 = 0.599 | 1039.96 | 7.616
288.15 K, x1 = 0.6999 | 1039.9 | 6.169
288.15 K, x1 = 0.7994 | 1039.72 | 4.764
288.15 K, x1 = 0.8997 | 1039.32 | 4.114
288.15 K, x1 = 1 | 1039.28 | 3.207
293.15 K, x1 = 0.1 | 1036.36 | 36.91
293.15 K, x1 = 0.2 | 1035.81 | 23.41
293.15 K, x1 = 0.3 | 1035.6 | 16.34
293.15 K, x1 = 0.3999 | 1035.44 | 11.64
293.15 K, x1 = 0.4998 | 1035.3 | 8.236
293.15 K, x1 = 0.599 | 1035.15 | 6.227
293.15 K, x1 = 0.6999 | 1034.93 | 5.098
293.15 K, x1 = 0.7994 | 1034.57 | 4.153
293.15 K, x1 = 0.8997 | 1034.01 | 3.478
293.15 K, x1 = 1 | 1033.84 | 2.75
298.15 K, x1 = 0.1 | 1032.13 | 27.72
298.15 K, x1 = 0.2 | 1031.64 | 18.11
298.15 K, x1 = 0.3 | 1031.2 | 12.87
298.15 K, x1 = 0.3999 | 1030.83 | 9.303
298.15 K, x1 = 0.4998 | 1030.52 | 6.75
298.15 K, x1 = 0.599 | 1030.23 | 5.172
298.15 K, x1 = 0.6999 | 1029.94 | 4.274
298.15 K, x1 = 0.7994 | 1029.58 | 3.521
298.15 K, x1 = 0.8997 | 1029.08 | 2.978
298.15 K, x1 = 1 | 1028.39 | 2.39
303.15 K, x1 = 0.1 | 1028.31 | 21.49
303.15 K, x1 = 0.2 | 1027.6 | 14.26
303.15 K, x1 = 0.3 | 1026.98 | 10.37
303.15 K, x1 = 0.3999 | 1026.44 | 7.605
303.15 K, x1 = 0.4998 | 1025.95 | 5.615
303.15 K, x1 = 0.599 | 1025.46 | 4.35
303.15 K, x1 = 0.6999 | 1024.89 | 3.632
303.15 K, x1 = 0.7994 | 1024.21 | 3.021
303.15 K, x1 = 0.8997 | 1023.32 | 2.582
303.15 K, x1 = 1 | 1022.92 | 2.097
308.15 K, x1 = 0.1 | 1024.23 | 16.84
308.15 K, x1 = 0.2 | 1023.36 | 11.41
308.15 K, x1 = 0.3 | 1022.6 | 8.434
308.15 K, x1 = 0.3999 | 1021.9 | 6.292
308.15 K, x1 = 0.4998 | 1021.21 | 4.739
308.15 K, x1 = 0.599 | 1020.5 | 3.704
308.15 K, x1 = 0.6999 | 1019.72 | 3.118
308.15 K, x1 = 0.7994 | 1018.88 | 2.626
308.15 K, x1 = 0.8997 | 1017.93 | 2.259
308.15 K, x1 = 1 | 1017.42 | 1.858
313.15 K, x1 = 0.1 | 1020.4 | 13.41
313.15 K, x1 = 0.2 | 1019.26 | 9.264
313.15 K, x1 = 0.3 | 1018.24 | 6.949
313.15 K, x1 = 0.3999 | 1017.32 | 5.27
313.15 K, x1 = 0.4998 | 1016.47 | 4.04
313.15 K, x1 = 0.599 | 1015.64 | 3.187
313.15 K, x1 = 0.6999 | 1014.75 | 2.706
313.15 K, x1 = 0.7994 | 1013.74 | 2.302
313.15 K, x1 = 0.8997 | 1012.53 | 1.995
313.15 K, x1 = 1 | 1011.9 | 1.658
318.15 K, x1 = 0.1 | 1016.39 | 10.83
318.15 K, x1 = 0.2 | 1015.04 | 7.619
318.15 K, x1 = 0.3 | 1013.82 | 5.804
318.15 K, x1 = 0.3999 | 1012.72 | 4.465
318.15 K, x1 = 0.4998 | 1011.69 | 3.482
318.15 K, x1 = 0.599 | 1010.69 | 2.767
318.15 K, x1 = 0.6999 | 1009.63 | 2.368
318.15 K, x1 = 0.7994 | 1008.46 | 2.034
318.15 K, x1 = 0.8997 | 1007.1 | 1.774
318.15 K, x1 = 1 | 1006.36 | 1.491
323.15 K, x1 = 0.1 | 1012.34 | 8.86
323.15 K, x1 = 0.2 | 1010.78 | 6.34
323.15 K, x1 = 0.3 | 1009.36 | 4.904
323.15 K, x1 = 0.3999 | 1008.08 | 3.824
323.15 K, x1 = 0.4998 | 1006.88 | 3.03
323.15 K, x1 = 0.599 | 1005.71 | 2.423
323.15 K, x1 = 0.6999 | 1004.48 | 2.09
323.15 K, x1 = 0.7994 | 1003.15 | 1.81
323.15 K, x1 = 0.8997 | 1001.64 | 1.589
323.15 K, x1 = 1 | 1000.79 | 1.349
